Data published in patent publication US8921267B2, “Safening 6-(trisubstituted phenyl)-4-amino-2-pyridinecarboxylate herbicide injury on cereal crops” (Dow AgroSciences LLC, priority 2008, dated 2014).
Counter-ions that a name gives are not always drawn.

Assays:
[1] = test system: wild buckwheat (Polygonum convolvulus L; POLCO); experiment: Postemergence herbicidal activity, greenhouse, visual injury: wild buckwheat; assay type: in vivo
Method in brief: (§1)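 Percent visual injury relative to solvent-blank controls, rated 20-22 d after treatment on a 0 (none) to 100 (complete kill) scale. Expected mixture response came from Colby's equation, Expected=A+B−(A×B/100). Sprays contained 1.5% v/v crop oil concentrate at 187 L/ha.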

[2] = test system: wheat (Triticum aestivum L; TRZAS); experiment: Postemergence herbicidal safening, greenhouse, visual injury: wheat; assay type: in vivo
Method in brief: as §1

[3] = test system: purple deadnettle (Lamium purpureum L; LAMPU); experiment: Postemergence herbicidal activity, greenhouse, visual injury: purple deadnettle; assay type: in vivo; set-up: key: visual injury, 0–100%: 0 = no injury, 100 = complete kill
Method in brief: (§2)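 Weeds were grown in MetroMix 306 (pH 6.0–6.8) in a greenhouse at about 18/17 °C day/night with a 14 h photoperiod and sprayed at the second or third true leaf stage. Compound 1 ester or salt plus safener in 1.5% v/v Agri-dex was applied at 187 L/ha. Injury was scored visually at 20-22 d (0–100%), with Colby expected values.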

[4] = test system: scented mayweed (Matricaria chamomila L; MATCH); experiment: Postemergence herbicidal activity, greenhouse, visual injury: scented mayweed; assay type: in vivo; set-up: key: % visual injury: 0 = no injury, 100 = complete kill
Protocol: (§3) Evaluation of Postemergence Herbicidal Safening in Cereal Crops
(§4) Seeds of the desired test plant species were planted in Sun Gro MetroMix® 306 planting mixture, which typically has a pH of 6.0 to 6.8 and an organic matter content of about 30 percent, in plastic pots with a surface area of 103.2 square centimeters (cm^2). When required to ensure good germination and healthy plants, a fungicide treatment and/or other chemical or physical treatment was applied. The plants were grown for 7-36 days (d) in a greenhouse with an approximate 14-hour (h) photoperiod which was maintained at about 18° C. during the day and 17° C. during the night. Nutrients and water were added on a regular basis and supplemental lighting was provided with overhead metal halide 1000-Watt lamps as necessary. The plants were employed for testing when they reached the second or third true leaf stage.
(§5) Weighed amounts of esters (methyl) or salts (TEA [triethylammonium], K [potassium]) of 4-amino-3-chloro-6-(4-chloro-2-fluoro-3-methoxyphenyl)pyridine-2-carboxylic acid (Compound 1) were dissolved in a volume of 97:3 volume/volume (v/v) acetone/dimethylsulfoxide (DMSO) to obtain stock solutions. […] The concentrated stock solutions were diluted with an aqueous mixture of 1.5% v/v of Agri-dex crop oil concentrate to provide the appropriate application rates. Compound requirements are based upon a 12 mL application volume at a rate of 187 liters per hectare (L/ha). Stocks solutions of the safeners were prepared following the same procedure. Spray solutions of the safeners and experimental compound mixtures were prepared by adding the stock solutions to the appropriate amount of dilution solution to form a 12 mL spray solution with active ingredients in two-way combinations. Formulated compounds were applied to the plant material with an overhead Mandel track sprayer equipped with 8002E nozzles calibrated to deliver 187 L/ha over an application area of 0.503 square meters (m^2) at a spray height of 18 inches (43 centimeters (cm)) above average plant canopy. Control plants were sprayed in the same manner with the solvent blank.
(§6) The treated plants and control plants were placed in a greenhouse as described above and watered by sub-irrigation to prevent wash-off of the test compounds. After 20-22 d, the condition of the test plants as compared with that of the control plants was determined visually and scored on a scale of 0 to 100 percent where 0 corresponds to no injury and 100 corresponds to complete kill.
(§7) Colby's equation was used to determine the herbicidal effects expected from the mixtures (Colby, S. R. Calculation of the synergistic and antagonistic response of herbicide combinations. Weeds 1967, 15, 20-22.).
(§8) The following equation was used to calculate the expected activity of mixtures containing two active ingredients, A and B: Expected=A+B−(A×B/100)
(§9) A=observed efficacy of active ingredient A at the same concentration as used in the mixture.
(§10) B=observed efficacy of active ingredient B at the same concentration as used in the mixture.

[5] = test system: corn poppy (Papaver rhoeas L; PAPRH); experiment: Postemergence herbicidal activity, greenhouse, visual injury: corn poppy; assay type: in vivo
Method in brief: as §2

[6] = test system: kochia (Kochia scoparia L; KCHSC); experiment: Postemergence herbicidal activity, greenhouse, visual injury: kochia; assay type: in vivo; set-up: key: % visual injury: 0 = no injury, 100 = complete kill
Protocol: as §3, §4, §5, §6, §7, §8, §9, §10

[7] = test system: cleavers (Galium aparine L; GALAP); experiment: Postemergence herbicidal activity, greenhouse, visual injury: cleavers; assay type: in vivo; set-up: key: visual injury, 0–100%: 0 = no injury, 100 = complete kill
Method in brief: as §1

[8] = test system: wild pansy (Viola tricolor L; VIOTR); experiment: Postemergence herbicidal activity, greenhouse, visual injury: wild pansy; assay type: in vivo; set-up: key: visual injury, 0–100%: 0 = no injury, 100 = complete kill
Method in brief: as §2

[9] = test system: barley (Hordeum vulgare L; HORVS); experiment: Postemergence herbicidal safening, greenhouse, visual injury: barley; assay type: in vivo; set-up: key to HORVS Ob (Observed values): % visual injury: 0 = no injury, 100 = complete kill
Method in brief: as §1

[10] = test system: bird's-eye speedwell (Veronica persica L; VERPE); experiment: Postemergence herbicidal activity, greenhouse, visual injury: bird's-eye speedwell; assay type: in vivo; set-up: key: visual injury, 0–100%: 0 = no injury, 100 = complete kill
Method in brief: as §1

[11] = test system: Russian thistle (Salsola iberica L; SASKR); experiment: Postemergence herbicidal activity, greenhouse, visual injury: Russian thistle; assay type: in vivo; set-up: key: visual injury, 0–100%: 0 = no injury, 100 = complete kill
Method in brief: as §1

[12] = test system: chickweed (Stellaria media L; STEME); experiment: Postemergence herbicidal activity, greenhouse, visual injury: chickweed; assay type: in vivo; set-up: key: visual injury, 0–100%: 0 = no injury, 100 = complete kill
Method in brief: as §1

[13] = test system: durum wheat (Triticum durum L; TRZDU); experiment: Postemergence herbicidal safening, greenhouse, visual injury: durum wheat; assay type: in vivo
Protocol: as §3, §4, §5, §6, §7, §8, §9, §10

barley (HORVW) = experiment: Postemergence herbicidal safening, greenhouse, visual injury: barley (HORVW)
[14] = test system: wheat (Triticum aestivum L; TRZAW); experiment: Postemergence herbicidal safening, greenhouse, visual injury: wheat (TRZAW); assay type: in vivo
Protocol: as §3, §4, §5, §6, §7, §8, §9, §10

## COc1c(Cl)ccc(-c2cc(N)c(Cl)c(C(=O)O)n2)c1F [Compound 1 TEA salt, 4-amino-3-chloro-6-(4-chloro-2-fluoro-3-methoxyphenyl)pyridine-2-carboxylic acid]
[1]; applied alone at 140 g/ha
  POLCO Ob: 100%
[1]; applied alone, 140 g/ha
  POLCO Ob: 100
[2]; applied alone at 140 g/ha
  TRZAS Ob: 26%
[2]; applied alone, 140 g/ha
  TRZAS Ob: 26%
[3]; applied alone at 140 g/ha
  LAMPU Ob: 99%
[3]; applied alone, 140 g/ha
  LAMPU Ob: 99
[4]; applied alone at 140 g/ha
  MATCH Ob: 80%
[4]; applied alone, 140 g/ha
  MATCH Ob: 80
[5]; applied alone at 140 g/ha
  PAPRH Ob: 100%
[5]; applied alone, 140 g/ha
  PAPRH Ob: 100
[6]; applied alone at 140 g/ha
  KCHSC Ob: 94%
[6]; applied alone, 140 g/ha
  KCHSC Ob: 94
[7]; applied alone at 140 g/ha
  GALAP Ob: 100%
[7]; applied alone, 140 g/ha
  GALAP Ob: 100
[8]; applied alone at 140 g/ha
  VIOTR Ob: 69%
[8]; applied alone, 140 g/ha
  VIOTR Ob: 69
[9]; applied alone at 140 g/ha
  HORVS Ob: 16%
[9]; applied alone, 140 g/ha
  HORVS Ob: 16%
[10]; applied alone at 140 g/ha
  VERPE Ob: 85%
[10]; applied alone, 140 g/ha
  VERPE Ob: 85
[11]; applied alone at 140 g/ha
  SASKR Ob: 88%
[11]; applied alone, 140 g/ha
  SASKR Ob: 88
[12]; applied alone at 140 g/ha
  STEME Ob: 94%
[12]; applied alone, 140 g/ha
  STEME Ob: 94

## C=CCN(CC=C)C(=O)C(Cl)Cl [Dichlormid, N,N-diallyl-2,2-dichloroacetamide, reference compound]
[1]; applied alone at 17.5 g/ha
  POLCO Ob: 0%
[1]; applied alone at 35 g/ha
  POLCO Ob: 0%
[1]; applied alone at 70 g/ha
  POLCO Ob: 0%
[1]; applied alone at 140 g/ha
  POLCO Ob: 0%
[2]; applied alone at 17.5 g/ha
  TRZAS Ob: 0%
[2]; applied alone at 35 g/ha
  TRZAS Ob: 0%
[2]; applied alone at 70 g/ha
  TRZAS Ob: 0%
[2]; applied alone at 140 g/ha
  TRZAS Ob: 0%
[13]; safener 4.4 g/ha alone
  TRZDU Ob (Observed values): 0%
[13]; safener 8.8 g/ha alone
  TRZDU Ob (Observed values): 0%
[13]; safener 17.5 g/ha alone
  TRZDU Ob (Observed values): 0%
[13]; safener 35 g/ha alone
  TRZDU Ob (Observed values): 0%
Barley (HORVW); safener 4.4 g/ha alone
  HORVW Ob (Observed values): 0%
Barley (HORVW); safener 8.8 g/ha alone
  HORVW Ob (Observed values): 0%
Barley (HORVW); safener 17.5 g/ha alone
  HORVW Ob (Observed values): 0%
Barley (HORVW); safener 35 g/ha alone
  HORVW Ob (Observed values): 0%
[3]; applied alone at 17.5 g/ha
  LAMPU Ob: 0%
[3]; applied alone at 35 g/ha
  LAMPU Ob: 0%
[3]; applied alone at 70 g/ha
  LAMPU Ob: 0%
[3]; applied alone at 140 g/ha
  LAMPU Ob: 0%
[3]; safener 4.4 g/ha alone
  LAMPU Ob (Observed values): 0
[3]; safener 8.8 g/ha alone
  LAMPU Ob (Observed values): 0
[3]; safener 17.5 g/ha alone
  LAMPU Ob (Observed values): 0
[3]; safener 35 g/ha alone
  LAMPU Ob (Observed values): 0
[4]; applied alone at 17.5 g/ha
  MATCH Ob: 0%
[4]; applied alone at 35 g/ha
  MATCH Ob: 0%
[4]; applied alone at 70 g/ha
  MATCH Ob: 0%
[4]; applied alone at 140 g/ha
  MATCH Ob: 0%
[5]; applied alone at 17.5 g/ha
  PAPRH Ob: 0%
[5]; applied alone at 35 g/ha
  PAPRH Ob: 0%
[5]; applied alone at 70 g/ha
  PAPRH Ob: 0%
[5]; applied alone at 140 g/ha
  PAPRH Ob: 0%
[5]; safener 4.4 g/ha alone
  PAPRH Ob (Observed values): 0
[5]; safener 8.8 g/ha alone
  PAPRH Ob (Observed values): 0
[5]; safener 17.5 g/ha alone
  PAPRH Ob (Observed values): 0
[5]; safener 35 g/ha alone
  PAPRH Ob (Observed values): 0
[6]; applied alone at 17.5 g/ha
  KCHSC Ob: 0%
[6]; applied alone at 35 g/ha
  KCHSC Ob: 0%
[6]; applied alone at 70 g/ha
  KCHSC Ob: 0%
[6]; applied alone at 140 g/ha
  KCHSC Ob: 0%
[14]; safener 4.4 g/ha alone
  TRZAW Ob (Observed values): 0%
[14]; safener 8.8 g/ha alone
  TRZAW Ob (Observed values): 0%
[14]; safener 17.5 g/ha alone
  TRZAW Ob (Observed values): 0%
[14]; safener 35 g/ha alone
  TRZAW Ob (Observed values): 0%
[7]; applied alone at 17.5 g/ha
  GALAP Ob: 0%
[7]; applied alone at 35 g/ha
  GALAP Ob: 0%
[7]; applied alone at 70 g/ha
  GALAP Ob: 0%
[7]; applied alone at 140 g/ha
  GALAP Ob: 0%
[8]; applied alone at 17.5 g/ha
  VIOTR Ob: 0%
[8]; applied alone at 35 g/ha
  VIOTR Ob: 0%
[8]; applied alone at 70 g/ha
  VIOTR Ob: 0%
[8]; applied alone at 140 g/ha
  VIOTR Ob: 0%
[9]; applied alone at 17.5 g/ha
  HORVS Ob: 0%
[9]; applied alone at 35 g/ha
  HORVS Ob: 0%
[9]; applied alone at 70 g/ha
  HORVS Ob: 0%
[9]; applied alone at 140 g/ha
  HORVS Ob: 0%
[9]; safener 4.4 g/ha alone
  HORVS Ob (Observed values): 0
[9]; safener 8.8 g/ha alone
  HORVS Ob (Observed values): 0
[9]; safener 17.5 g/ha alone
  HORVS Ob (Observed values): 0
[9]; safener 35 g/ha alone
  HORVS Ob (Observed values): 0
[10]; applied alone at 17.5 g/ha
  VERPE Ob: 0%
[10]; applied alone at 35 g/ha
  VERPE Ob: 0%
[10]; applied alone at 70 g/ha
  VERPE Ob: 0%
[10]; applied alone at 140 g/ha
  VERPE Ob: 0%
[11]; applied alone at 17.5 g/ha
  SASKR Ob: 0%
[11]; applied alone at 35 g/ha
  SASKR Ob: 0%
[11]; applied alone at 70 g/ha
  SASKR Ob: 0%
[11]; applied alone at 140 g/ha
  SASKR Ob: 0%
[12]; applied alone at 17.5 g/ha
  STEME Ob: 0%
[12]; applied alone at 35 g/ha
  STEME Ob: 0%
[12]; applied alone at 70 g/ha
  STEME Ob: 0%
[12]; applied alone at 140 g/ha
  STEME Ob: 0%
